Values of other authors, collected in US20190135859A1, “METHOD OF MANUFACTURING A PHARMACEUTICAL COMPOSITION” (FERRING B.V., priority 2017, published 2019).
Starred links: 1 amine or outer side, 2 acyl side, 3 side chain; linkers in the order of their positions; H or OH if unused. Positions of bridges follow the written chain, without caps; N, C: chain ends. Residues, ends and D or L forms follow the SMILES beside them. X1 = O=C(CCC[*:2])[*:1]

What was measured:
[1] = test system: human oxytocin (hOT) receptor versus human V2 (hV2) receptor; conditions: ratio of EC50 values; see Table 2 in WO2009/122285
[2] = test system: Prader-Willi Syndrome patients; conditions: after 15 days, versus placebo treated patients, as described in WO2016/044131

Row | SMILES | hV2/hOT selectivity ratio (EC50 hV2/EC50 hOT) [1] | improvement over placebo in measurements of hyperphagia, obsessive compulsive disorder, food seeking behaviour and clinical global impression [2]
1 | CC[C@H](C)[C@@H]1NC(=O)[C@H](Cc2ccc(O)cc2)NC(=O)[C@@H](N)CSSC[C@@H](C(=O)N2CCC[C@H]2C(=O)N[C@@H](CC(C)C)C(=O)NCC(N)=O)NC(=O)[C@H](CC(N)=O)NC(=O)[C@H](CCC(N)=O)NC1=O [Oxytocin, oxytocin] | 3 | 
2 | CC[C@H](C)[C@@H]1NC(=O)[C@H](Cc2ccc(OC)cc2)NC(=O)CCCSC[C@@H](C(=O)N2CCC[C@H]2C(=O)N[C@@H](CC(C)C)C(=O)NCC(N)=O)NC(=O)[C@H](CC(N)=O)NC(=O)[C@H](CCC(N)=O)NC1=O [carbetocin, (1-desamino-1-monocarba-2(O-methyl)-tyrosine)oxytocin] (Y(Me)IQNCPLG-NH2; linker N-5 via X1) | 244 | statistically significant improvement
